Measured values taken from ChEMBL document CHEMBL2177034, “Inhibition of hypoxia inducible factor-2 transcription: isolation of active modulators from marine sponges” (J Nat Prod, 2012).
Values belong to the molecule of their own block, whether it stands above or below them. Calls of active or inactive are those of the source. No cut-off for these calls is given here.

Experiments:
[1] = target: Hypoxia-inducible factor 1-alpha (Homo sapiens) (UniProt Q16665); experiment: Inhibition of HIF1alpha in human SK-RC-28 cells assessed as reduction in carbonic anhydrase 9 expression at 1 uM after 48 hrs by RT-PCR analysis; format: cell-based
Chain of Hypoxia-inducible factor 1-alpha (Homo sapiens) (Q16665 whole entry, looked up, the tested form may be a part): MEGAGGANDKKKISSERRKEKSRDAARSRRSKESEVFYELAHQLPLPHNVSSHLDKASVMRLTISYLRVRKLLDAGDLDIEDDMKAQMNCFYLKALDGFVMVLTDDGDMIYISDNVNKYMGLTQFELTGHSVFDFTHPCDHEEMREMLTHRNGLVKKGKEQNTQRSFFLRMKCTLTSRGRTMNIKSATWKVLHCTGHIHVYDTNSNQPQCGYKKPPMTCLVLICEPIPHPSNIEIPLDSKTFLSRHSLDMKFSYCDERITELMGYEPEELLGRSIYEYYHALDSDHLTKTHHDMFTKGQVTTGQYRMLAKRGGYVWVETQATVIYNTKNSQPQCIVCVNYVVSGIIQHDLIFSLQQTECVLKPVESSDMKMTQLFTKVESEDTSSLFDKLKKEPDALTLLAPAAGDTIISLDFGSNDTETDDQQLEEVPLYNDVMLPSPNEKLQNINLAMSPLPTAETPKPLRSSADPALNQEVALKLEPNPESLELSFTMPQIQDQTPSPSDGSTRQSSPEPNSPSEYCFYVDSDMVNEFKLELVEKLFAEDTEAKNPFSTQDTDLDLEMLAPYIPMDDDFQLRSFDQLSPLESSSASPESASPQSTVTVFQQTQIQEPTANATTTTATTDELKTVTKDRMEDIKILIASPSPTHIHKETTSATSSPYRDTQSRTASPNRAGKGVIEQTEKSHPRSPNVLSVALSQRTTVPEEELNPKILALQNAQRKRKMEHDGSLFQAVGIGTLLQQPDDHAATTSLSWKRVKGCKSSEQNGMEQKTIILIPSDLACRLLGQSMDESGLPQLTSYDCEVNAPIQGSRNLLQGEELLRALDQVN

[2] = target: Hypoxia-inducible factor 1-alpha (Homo sapiens) (UniProt Q16665); experiment: Inhibition of HIF1alpha in human SK-RC-28 cells assessed as reduction in VEGFA at 1 uM after 48 hrs by RT-PCR analysis; format: cell-based
[3] = target: Hypoxia-inducible factor 1-alpha (Homo sapiens) (UniProt Q16665); experiment: Inhibition of HIF1alpha in human RCC4 cells coexpressing HIF2alpha assessed as decrease in carbonic anhydrase 9 mRNA expression at 1 uM after 48 hrs by RT-PCR analysis; format: cell-based
[4] = target: T1, Endothelial PAS domain-containing protein 1 (Homo sapiens, UniProt Q99814); experiment: Inhibition of HIF2alpha in human 786-0 cells assessed as reduction in VEGFA at 1 uM after 48 hrs by RT-PCR analysis; format: cell-based
T1 sequence (Q99814 whole entry, the tested form may be a part): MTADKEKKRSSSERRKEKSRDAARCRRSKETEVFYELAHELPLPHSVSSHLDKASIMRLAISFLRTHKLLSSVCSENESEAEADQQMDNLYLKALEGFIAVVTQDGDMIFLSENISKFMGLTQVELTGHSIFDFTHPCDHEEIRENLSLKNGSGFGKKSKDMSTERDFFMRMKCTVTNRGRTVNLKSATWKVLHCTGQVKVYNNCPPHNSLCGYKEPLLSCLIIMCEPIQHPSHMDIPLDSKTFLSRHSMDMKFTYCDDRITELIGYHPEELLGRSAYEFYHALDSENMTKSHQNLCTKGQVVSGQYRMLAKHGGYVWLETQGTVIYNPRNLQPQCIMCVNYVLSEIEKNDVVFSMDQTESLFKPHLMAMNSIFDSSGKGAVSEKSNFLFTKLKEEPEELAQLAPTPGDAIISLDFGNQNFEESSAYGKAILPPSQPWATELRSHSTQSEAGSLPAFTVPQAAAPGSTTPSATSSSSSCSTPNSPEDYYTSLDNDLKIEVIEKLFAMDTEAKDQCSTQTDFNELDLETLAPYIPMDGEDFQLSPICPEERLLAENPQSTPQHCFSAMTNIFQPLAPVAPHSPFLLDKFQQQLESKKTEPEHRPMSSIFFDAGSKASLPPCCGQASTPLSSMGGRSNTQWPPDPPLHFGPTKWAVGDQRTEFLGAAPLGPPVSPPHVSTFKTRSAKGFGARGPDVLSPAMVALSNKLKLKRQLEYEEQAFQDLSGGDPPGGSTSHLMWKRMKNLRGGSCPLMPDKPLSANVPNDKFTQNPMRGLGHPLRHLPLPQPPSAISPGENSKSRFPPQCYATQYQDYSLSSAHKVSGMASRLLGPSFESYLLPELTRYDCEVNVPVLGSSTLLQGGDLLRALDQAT

[5] = Downregulation of CCND1 mRNA expression in human SK-RC-28 cells at 1 uM after 48 hrs by RT-PCR analysis; format: functional, cell-based
[6] = Downregulation of HIF1alpha mRNA expression in human RCC4 cells at 1 uM after 48 hrs by RT-PCR analysis; format: functional, cell-based
[7] = Cytotoxicity against human RCC4 cells expressing HIF2alpha and HIF1alpha after 2 days by XTT assay; format: functional, cell-based; details: RCC4, 48 h
[8] = Downregulation of HIF1alpha mRNA expression in human SK-RC-28 cells at 1 uM after 48 hrs by RT-PCR analysis; format: functional, cell-based
[9] = Downregulation of TGFalpha mRNA expression in human SK-RC-28 cells at 1 uM after 48 hrs by RT-PCR analysis; format: functional, cell-based
[10] = Downregulation of HIF2alpha mRNA expression in human RCC4 cells at 1 uM after 48 hrs by RT-PCR analysis; format: functional, cell-based
786-0 [11] = experiment: Cytotoxicity against human 786-0 cells expressing HIF2alpha after 2 days by XTT assay; format: functional, cell-based; details: 786-0, 48 h
[12] = target: T1, Endothelial PAS domain-containing protein 1; experiment: Inhibition of HIF2alpha in human RCC4 cells coexpressing HIF1alpha assessed as reduction in CCND1 mRNA expression at 1 uM after 48 hrs by RT-PCR analysis; format: cell-based
786-0 [13] = experiment: Downregulation of HIF2alpha mRNA expression in human 786-0 cells at 1 uM after 48 hrs by RT-PCR analysis; format: functional, cell-based
[14] = target: T1, Endothelial PAS domain-containing protein 1; experiment: Inhibition of HIF2alpha in human 786-0 cells expressing truncated HIF1alpha assessed as reduction in luciferase activity after 24 hrs by reporter gene assay; format: cell-based
786-0 [15] = experiment: Downregulation of HIF1alpha mRNA expression in human 786-0 cells at 1 uM after 48 hrs by RT-PCR analysis; format: functional, cell-based
786-0 [16] = experiment: Inhibition of HIF-mediated VEGFA protein expression in serum deprived human 786-0 cells at 1 uM after 48 hrs relative to control; format: cell-based
[17] = target: T2, Hypoxia inducible factors; HIF-1-alpha, HIF-2-alpha (Homo sapiens) (UniProt Q16665+Q99814); experiment: Inhibition of HIF1alpha/2alpha in human RCC4 cells assessed as reduction in VEGFA mRNA expression at 1 uM after 48 hrs by RT-PCR analysis; format: cell-based
[18] = target: T1, Endothelial PAS domain-containing protein 1; experiment: Inhibition of HIF2alpha in human 786-0 cells assessed as reduction in GLUT1 mRNA expression at 1 uM after 48 hrs by RT-PCR analysis; format: cell-based
[19] = target: T1, Endothelial PAS domain-containing protein 1; experiment: Inhibition of HIF2alpha in human 786-0 cells assessed as reduction in TGFalpha mRNA expression at 1 uM after 48 hrs by RT-PCR analysis; format: cell-based
[20] = target: T1, Endothelial PAS domain-containing protein 1; experiment: Inhibition of HIF2alpha in human RCC4 cells coexpressing HIF1alpha assessed as reduction in TGFalpha mRNA expression at 1 uM after 48 hrs by RT-PCR analysis; format: cell-based
[21] = target: T1, Endothelial PAS domain-containing protein 1; experiment: Inhibition of HIF2alpha in human RCC4 cells coexpressing HIF1alpha assessed as reduction in GLUT1 mRNA expression at 1 uM after 48 hrs by RT-PCR analysis; format: cell-based
[22] = Downregulation of GLUT1 mRNA expression in human SK-RC-28 cells at 1 uM after 48 hrs by RT-PCR analysis; format: functional, cell-based
[23] = Cytotoxicity against human SK-RC-28 cells expressing HIF1alpha after 2 days by XTT assay; format: functional, cell-based; details: 48 h
[24] = target: T1, Endothelial PAS domain-containing protein 1; experiment: Inhibition of HIF2alpha in human 786-0 cells assessed as reduction in CCND1 mRNA expression at 1 uM after 48 hrs by RT-PCR analysis; format: cell-based
[25] = Downregulation of HIF2alpha mRNA expression in human SK-RC-28 cells at 1 uM after 48 hrs by RT-PCR analysis; format: functional, cell-based
786-0 [26] = experiment: Down regulation of carbonic anhydrase 9 expression in human 786-0 cells at 1 uM after 48 hrs by RT-PCR analysis; format: functional, cell-based
[27] = Downregulation of HIF1alpha mRNA expression in human SK-RC-28 cells at 20 uM after 48 hrs by RT-PCR analysis; format: functional, cell-based
[28] = Downregulation of HIF2alpha mRNA expression in human RCC4 cells at 20 uM after 48 hrs by RT-PCR analysis; format: functional, cell-based
[29] = target: Hypoxia-inducible factor 1-alpha (Homo sapiens) (UniProt Q16665); experiment: Inhibition of HIF1alpha in human SK-RC-28 cells assessed as reduction in carbonic anhydrase expression at 20 uM after 48 hrs by RT-PCR analysis; format: cell-based
[30] = target: T1, Endothelial PAS domain-containing protein 1; experiment: Inhibition of HIF2alpha in human 786-0 cells assessed as reduction in VEGFA mRNA expression at 20 uM after 48 hrs by RT-PCR analysis; format: cell-based
[31] = Downregulation of HIF2alpha mRNA expression in human SK-RC-28 cells at 20 uM after 48 hrs by RT-PCR analysis; format: functional, cell-based
[32] = target: T1, Endothelial PAS domain-containing protein 1; experiment: Inhibition of HIF2alpha in human RCC4 cells coexpressing HIF1alpha assessed as reduction in GLUT1 mRNA expression at 20 uM after 48 hrs by RT-PCR analysis; format: cell-based
786-0 [33] = experiment: Downregulation of HIF2alpha mRNA expression in human 786-0 cells at 20 uM after 48 hrs by RT-PCR analysis; format: functional, cell-based
[34] = target: Hypoxia-inducible factor 1-alpha (Homo sapiens) (UniProt Q16665); experiment: Inhibition of HIF1alpha in human SK-RC-28 cells assessed as reduction in VEGFA expression at 20 uM after 48 hrs by RT-PCR analysis; format: cell-based
[35] = target: Hypoxia-inducible factor 1-alpha (Homo sapiens) (UniProt Q16665); experiment: Induction of HIF1alpha in human RCC4 cells assessed as increase in […] 9 expression at 20 uM after 48 hrs by RT-PCR analysis relative to control; format: cell-based
[36] = target: T1, Endothelial PAS domain-containing protein 1; experiment: Inhibition of HIF2alpha in human 786-0 cells assessed as reduction in CCND1 mRNA expression at 20 uM after 48 hrs by RT-PCR analysis; format: cell-based
[37] = Downregulation of TGFalpha mRNA expression in human SK-RC-28 cells at 20 uM after 48 hrs by RT-PCR analysis; format: functional, cell-based
786-0 [38] = experiment: Inhibition of total protein expression in serum deprived human 786-0 cells at 20 uM after 48 hrs relative to control; format: cell-based; details: 786-0, 48 h, 20 µM
786-0 [39] = experiment: Inhibition of HIF-mediated VEGFA protein expression in serum deprived human 786-0 cells at 20 uM after 48 hrs relative to control; format: cell-based
[40] = Downregulation of GLUT1 mRNA expression in human SK-RC-28 cells at 20 uM after 48 hrs by RT-PCR analysis; format: functional, cell-based
[41] = Downregulation of HIF1alpha mRNA expression in human RCC4 cells at 20 uM after 48 hrs by RT-PCR analysis; format: functional, cell-based
[42] = Downregulation of CCND1 mRNA expression in human SK-RC-28 cells at 20 uM after 48 hrs by RT-PCR analysis; format: functional, cell-based
[43] = target: T2, Hypoxia inducible factors; HIF-1-alpha, HIF-2-alpha (Homo sapiens); experiment: Inhibition of HIF1alpha/2alpha in human RCC4 cells assessed as reduction in VEGFA mRNA expression at 20 uM after 48 hrs by RT-PCR analysis; format: cell-based
[44] = target: T1, Endothelial PAS domain-containing protein 1; experiment: Inhibition of HIF2alpha in human RCC4 cells coexpressing HIF1alpha assessed as reduction in TGFalpha mRNA expression at 20 uM after 48 hrs by RT-PCR analysis; format: cell-based
786-0 [45] = experiment: Downregulation of HIF1alpha mRNA expression in human 786-0 cells at 20 uM after 48 hrs by RT-PCR analysis; format: functional, cell-based
[46] = target: T1, Endothelial PAS domain-containing protein 1; experiment: Inhibition of HIF2alpha in human RCC4 cells coexpressing HIF1alpha assessed as reduction in CCND1 mRNA expression at 20 uM after 48 hrs by RT-PCR analysis; format: cell-based
[47] = target: T1, Endothelial PAS domain-containing protein 1; experiment: Inhibition of HIF2alpha in human 786-0 cells assessed as reduction in TGFalpha mRNA expression at 20 uM after 48 hrs by RT-PCR analysis; format: cell-based
[48] = target: T1, Endothelial PAS domain-containing protein 1; experiment: Inhibition of HIF2alpha in human 786-0 cells assessed as reduction in GLUT1 mRNA expression at 20 uM after 48 hrs by RT-PCR analysis; format: cell-based

SMILES: Nc1nccc(-c2c3c(O)ccnc3n3c(N)nccc23)n1 [VARIOLIN B]
- inhibition [1]: inactive
- inhibition [2]: inactive
- inhibition [3]: inactive
- inhibition [4]: inactive
- Activity [5]: inactive
- Activity [6]: inactive
- IC50 [7]: 8.8 µM
- Activity [8]: inactive
- Activity [9]: inactive
- Activity [10]: inactive
- IC50 (786-0 [11]): > 100 µM
- inhibition [12]: inactive
- Activity (786-0 [13]): inactive
- EC50 [14]: 700 nM
- Activity (786-0 [15]): inactive
- inhibition (786-0 [16]): 50%
- inhibition [17]: inactive
- inhibition [18]: inactive
- inhibition [19]: inactive
- inhibition [20]: inactive
- inhibition [21]: inactive
- Activity [22]: inactive
- IC50 [23]: > 100 µM
- inhibition [24]: inactive
- Activity [25]: inactive
- Activity (786-0 [26]): inactive

- inhibition [29]: inactive
- inhibition [30]: Active
- inhibition [32]: Active
- inhibition [34]: inactive
- fold change (FC) [35]: 4
- inhibition [36]: Active
- EC50 [14]: 3300 nM
- inhibition [43]: Active
- inhibition [44]: Active
- inhibition [46]: Active
- inhibition [47]: Active
- inhibition [48]: Active
SMILES: CC1(C)CCC[C@]2(C)[C@H]3C=C4C=C(O)C(=O)C=C4O[C@@]3(C)CC[C@@H]12 [PUUPEHENONE]
- Activity [27]: inactive
- Activity [28]: Active
- Activity [31]: inactive
- Activity (786-0 [33]): Active
- IC50 [7]: 18 µM
- Activity [37]: inactive
- Activity (786-0 [38]): Toxic
- inhibition (786-0 [39]): Active
- Activity [40]: inactive
- Activity [41]: Active
- IC50 (786-0 [11]): 17.7 µM
- Activity [42]: inactive
- Activity (786-0 [45]): Active
- IC50 [23]: 15.5 µM
